Reference: patent US10851102B2, “Imidazole and triazole containing bicyclic compounds as JAK inhibitors” (THERAVANCE BIOPHARMA R&D IP, LLC, priority 2019, dated 2020)

What was measured:
JAK1 = JAK1 (Homo sapiens (Human), UniProt P23458); test: Biochemical JAK and Tyk2 kinase assays (LanthaScreen): JAK1; conditions: 1 h pre-incubation, ATP at Km; pIC50 converted to pKi by Cheng-Prusoff
Protocol: (§1) Assay 1: Biochemical JAK and Tyk2 Kinase Assays
(§2) A panel of four LanthaScreen JAK biochemical assays (JAK1, 2, 3 and Tyk2) were carried in a common kinase reaction buffer (50 mM HEPES, pH 7.5, 0.01% Brij-35, 10 mM MgCl2, and 1 mM EGTA). Recombinant GST-tagged JAK enzymes and a GFP-tagged STAT1 peptide substrate were obtained from Life Technologies.
(§3) Serially or discretely diluted compounds were pre-incubated with each of the four JAK enzymes and the substrate in white 384-well microplates (Corning) at ambient temperature for 1 h. ATP was subsequently added to initiate the kinase reactions in 10 μL total volume, with 1% DMSO. […] Kinase reactions were allowed to proceed for 1 hour at ambient temperature before a 10 μL preparation of EDTA (10 mM final concentration) and Tb-anti-pSTAT1 (pTyr701) antibody (Life Technologies, 2 nM final concentration) in TR-FRET dilution buffer (Life Technologies) was added. The plates were allowed to incubate at ambient temperature for 1 h before being read on the EnVision reader (Perkin Elmer). Emission ratio signals (520 nm/495 nm) were recorded and utilized to calculate the percent inhibition values based on DMSO and background controls.
(§4) For dose-response analysis, percent inhibition data were plotted vs. compound concentrations, and IC50 values were determined from a 4-parameter robust fit model with the Prism software (GraphPad Software). Results were expressed as pIC50 (negative logarithm of IC50) and subsequently converted to pKi (negative logarithm of dissociation constant, Ki) using the Cheng-Prusoff equation.

JAK2 = JAK2 (Homo sapiens (Human), UniProt O60674); test: Biochemical JAK and Tyk2 kinase assays (LanthaScreen): JAK2; conditions: 1 h pre-incubation, ATP at Km, pIC50 converted to pKi by Cheng-Prusoff
Chain of JAK2 (O60674 whole entry): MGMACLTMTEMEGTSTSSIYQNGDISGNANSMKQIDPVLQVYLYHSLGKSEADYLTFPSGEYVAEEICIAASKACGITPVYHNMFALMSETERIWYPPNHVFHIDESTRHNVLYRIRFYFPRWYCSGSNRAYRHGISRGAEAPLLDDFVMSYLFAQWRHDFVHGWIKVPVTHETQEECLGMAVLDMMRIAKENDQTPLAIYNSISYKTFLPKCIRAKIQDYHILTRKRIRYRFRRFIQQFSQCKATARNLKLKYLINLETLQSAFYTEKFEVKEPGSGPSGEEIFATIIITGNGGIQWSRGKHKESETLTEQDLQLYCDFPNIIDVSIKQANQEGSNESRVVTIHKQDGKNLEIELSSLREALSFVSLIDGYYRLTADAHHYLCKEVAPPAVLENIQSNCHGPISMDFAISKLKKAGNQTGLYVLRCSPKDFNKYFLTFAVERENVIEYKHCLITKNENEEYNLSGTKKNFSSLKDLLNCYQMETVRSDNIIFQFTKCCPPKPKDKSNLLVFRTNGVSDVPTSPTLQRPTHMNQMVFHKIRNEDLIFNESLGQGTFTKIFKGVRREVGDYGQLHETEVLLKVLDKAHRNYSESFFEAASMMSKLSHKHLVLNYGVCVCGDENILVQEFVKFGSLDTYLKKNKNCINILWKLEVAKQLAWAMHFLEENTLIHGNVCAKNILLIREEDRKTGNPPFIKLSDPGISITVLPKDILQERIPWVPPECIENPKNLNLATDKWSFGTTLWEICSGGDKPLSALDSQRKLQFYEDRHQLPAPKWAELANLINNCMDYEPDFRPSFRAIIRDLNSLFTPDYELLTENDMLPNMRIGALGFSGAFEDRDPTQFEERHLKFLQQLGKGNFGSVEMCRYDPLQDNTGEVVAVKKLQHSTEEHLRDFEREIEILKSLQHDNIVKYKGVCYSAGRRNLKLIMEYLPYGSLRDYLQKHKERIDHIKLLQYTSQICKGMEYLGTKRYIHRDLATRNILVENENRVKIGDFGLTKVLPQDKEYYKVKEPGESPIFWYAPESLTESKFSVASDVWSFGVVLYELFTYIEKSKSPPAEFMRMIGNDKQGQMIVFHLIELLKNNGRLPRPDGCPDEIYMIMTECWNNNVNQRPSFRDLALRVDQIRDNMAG
Protocol: as §1, §2, §3, §4

JAK3 = JAK3 (Homo sapiens (Human), UniProt P52333); test: Biochemical JAK and Tyk2 kinase assays (LanthaScreen): JAK3; conditions: for JAK 3 (pKi) / Ki: 1 h pre-incubation, ATP at Km, pIC50 converted to pKi by Cheng-Prusoff; for JAK3 (pKi)-JAK1 (pKi): difference of pKi values, selectivity JAK3 over JAK1; for Ki: read-out: JAK 3 (pKi) (converted)
Chain of JAK3 (P52333 whole entry): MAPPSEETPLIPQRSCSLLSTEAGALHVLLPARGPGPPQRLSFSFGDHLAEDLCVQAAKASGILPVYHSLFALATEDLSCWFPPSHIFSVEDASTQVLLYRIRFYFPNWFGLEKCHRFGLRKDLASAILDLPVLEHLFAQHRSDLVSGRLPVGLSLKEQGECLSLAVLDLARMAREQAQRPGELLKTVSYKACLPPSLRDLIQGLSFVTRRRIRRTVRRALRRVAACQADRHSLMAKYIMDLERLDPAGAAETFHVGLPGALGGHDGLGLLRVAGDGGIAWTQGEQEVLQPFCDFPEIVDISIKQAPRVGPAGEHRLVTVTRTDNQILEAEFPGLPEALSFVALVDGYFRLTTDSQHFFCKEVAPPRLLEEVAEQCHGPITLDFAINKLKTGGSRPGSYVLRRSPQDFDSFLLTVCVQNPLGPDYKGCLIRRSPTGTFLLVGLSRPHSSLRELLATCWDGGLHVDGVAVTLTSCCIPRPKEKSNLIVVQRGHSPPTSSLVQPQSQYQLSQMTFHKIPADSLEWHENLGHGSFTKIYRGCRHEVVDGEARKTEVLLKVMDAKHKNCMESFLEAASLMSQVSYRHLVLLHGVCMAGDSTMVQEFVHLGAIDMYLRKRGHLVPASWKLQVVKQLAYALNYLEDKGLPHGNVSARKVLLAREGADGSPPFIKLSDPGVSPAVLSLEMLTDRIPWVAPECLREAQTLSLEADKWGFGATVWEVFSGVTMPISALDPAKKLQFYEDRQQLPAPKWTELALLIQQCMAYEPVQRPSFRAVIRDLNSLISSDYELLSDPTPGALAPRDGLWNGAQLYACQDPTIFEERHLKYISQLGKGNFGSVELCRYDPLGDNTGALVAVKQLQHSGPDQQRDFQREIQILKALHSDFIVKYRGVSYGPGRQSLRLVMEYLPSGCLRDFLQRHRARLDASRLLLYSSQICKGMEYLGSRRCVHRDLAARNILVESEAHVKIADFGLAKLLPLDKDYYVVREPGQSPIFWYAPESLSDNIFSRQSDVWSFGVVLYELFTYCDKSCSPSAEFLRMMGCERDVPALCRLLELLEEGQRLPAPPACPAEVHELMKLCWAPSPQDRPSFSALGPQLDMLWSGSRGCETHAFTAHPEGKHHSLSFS
Protocol: as §1, §2, §3, §4

Tyk2 = Tyk2 (Homo sapiens (Human), UniProt P29597); test: Biochemical JAK and Tyk2 kinase assays (LanthaScreen): Tyk2; conditions: 1 h pre-incubation, ATP at Km; pIC50 converted to pKi by Cheng-Prusoff
Chain of Tyk2 (P29597 whole entry): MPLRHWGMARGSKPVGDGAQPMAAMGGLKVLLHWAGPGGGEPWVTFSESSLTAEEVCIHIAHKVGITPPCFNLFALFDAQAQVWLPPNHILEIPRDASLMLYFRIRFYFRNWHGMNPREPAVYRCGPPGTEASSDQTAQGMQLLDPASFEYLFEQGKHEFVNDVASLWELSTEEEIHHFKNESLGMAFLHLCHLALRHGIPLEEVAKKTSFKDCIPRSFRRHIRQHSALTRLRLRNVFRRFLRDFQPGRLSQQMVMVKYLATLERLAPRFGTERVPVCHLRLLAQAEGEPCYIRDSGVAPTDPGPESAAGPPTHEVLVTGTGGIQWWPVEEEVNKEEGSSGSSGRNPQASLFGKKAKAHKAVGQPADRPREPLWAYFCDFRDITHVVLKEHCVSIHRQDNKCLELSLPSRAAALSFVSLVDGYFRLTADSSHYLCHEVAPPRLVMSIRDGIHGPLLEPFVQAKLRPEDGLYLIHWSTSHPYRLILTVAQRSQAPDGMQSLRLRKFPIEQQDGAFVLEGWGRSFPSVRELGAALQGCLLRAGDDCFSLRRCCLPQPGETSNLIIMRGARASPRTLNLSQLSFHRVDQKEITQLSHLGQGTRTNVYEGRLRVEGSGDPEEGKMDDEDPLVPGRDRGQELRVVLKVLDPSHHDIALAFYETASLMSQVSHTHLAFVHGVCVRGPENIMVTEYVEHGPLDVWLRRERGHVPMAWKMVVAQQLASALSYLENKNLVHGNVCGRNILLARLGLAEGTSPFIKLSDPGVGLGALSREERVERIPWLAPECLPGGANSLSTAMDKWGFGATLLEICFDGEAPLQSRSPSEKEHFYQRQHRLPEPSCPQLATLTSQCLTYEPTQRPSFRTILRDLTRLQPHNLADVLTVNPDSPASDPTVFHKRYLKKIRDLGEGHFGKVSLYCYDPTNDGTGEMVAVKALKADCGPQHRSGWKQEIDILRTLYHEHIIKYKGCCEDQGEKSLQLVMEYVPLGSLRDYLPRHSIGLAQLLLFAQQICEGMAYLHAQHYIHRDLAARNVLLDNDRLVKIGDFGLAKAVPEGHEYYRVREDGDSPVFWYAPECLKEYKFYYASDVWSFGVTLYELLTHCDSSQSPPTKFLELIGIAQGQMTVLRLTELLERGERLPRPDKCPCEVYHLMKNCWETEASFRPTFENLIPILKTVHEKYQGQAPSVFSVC
Protocol: as §1, §2, §3, §4

[1] = tested on: IL-2 stimulated pSTAT5 in Tall-1 T cells (JAK3); test: Cellular JAK3 potency assay: inhibition of IL-2 stimulated pSTAT5 in Tall-1 T cells; format: cell-based; conditions: IL-2 300 ng/ml, pSTAT5 AlphaLisa, Tall-1 human T cell line; read-out: Tall-1 (pIC50) (converted)
Protocol: Assay 2: Cellular JAK3 Potency Assay: Inhibition of IL-2 Stimulated pSTAT5 in Tall-1 T Cells
The potency of test compounds for inhibition of interleukin-2 (IL-2) stimulated STATS phosphorylation was measured in the Tall-1 human T cell line (DSMZ) using AlphaLisa. Because IL-2 signals through JAK3, this assay provides a measure of JAK3 cellular potency.
(§5) Phosphorylated STATS was measured via the AlphaLISA SureFire Ultra pSTAT5 (Tyr694/699) kit (PerkinElmer).
Human T cells from the Tall-1 cell line were cultured in a 37° C., 5% CO2 humidified incubator in RPMI (Life Technologies) supplemented with 15% Heat Inactivated Fetal Bovine Serum (FBS, Life Technologies), 2 mM Glutamax (Life Technologies), 25 mM HEPES (Life Technologies) and 1× Pen/Strep (Life Technologies). Compounds were serially diluted in DMSO and dispensed acoustically to empty wells. Assay media (phenol red-free DMEM (Life Technologies) supplemented with 10% FBS (ATCC)) was dispensed (4 μL/well) and plates shaken at 900 rpm for 10 mins. Cells were seeded at 45,000 cells/well in assay media (4 μL/well), and incubated at 37° C., 5% CO2 for 1 hour, followed by the addition of IL-2 (R&D Systems; final concentration 300 ng/ml) in pre-warmed assay media ([…]) for 30 minutes. After cytokine stimulation, cells were lysed with 6 ul of 3× AlphaLisa Lysis Buffer (PerkinElmer) containing 1× PhosStop and Complete tablets (Roche). The lysate was shaken at 900 rpm for 10 minutes at room temperature (RT). Phosphorylated STATS was measured via the pSTAT5 AlphaLisa kit (PerkinElmer). Freshly prepared acceptor bead mixture was dispensed onto lysate (5 μL) under green filtered <100 lux light. Plates were shaken at 900 rpm for 2 mins, briefly spun down, and incubated for 2 hrs at RT in the dark. Donor beads were dispensed (5 μL) under green filtered <100 lux light. Plates were shaken at 900 rpm for 2 minutes, briefly spun down, and incubated overnight at RT in the dark. Luminescence was measured with excitation at 689 nm and emission at 570 nm using an EnVision plate reader (PerkinElmer) under green filtered <100 lux light.
(§6) To determine the inhibitory potency of test compounds in response to IL-2, the average emission intensity of beads bound to pSTAT5 was measured in a human T cell line. IC50 values were determined from analysis of the inhibition curves of signal intensity versus compound concentration. Data are expressed as pIC50 (negative decadic logarithm IC50) values (mean±standard deviation).

[2] = tested on: IL-2 stimulated pSTAT5 in CD4+ T cells isolated from murine splenocytes (JAK3); test: Inhibition of IL-2 stimulated pSTAT5 in CD4+ T cells isolated from murine splenocytes; format: cell-based; conditions: Mus musculus, IL-2 7 ng/ml, read-out: pIC50, inhibition of IL-2 stimulated pSTAT5 (converted)
Protocol: Assay 3: Inhibition of IL-2 Stimulated pSTAT5 in CD4+ T Cells Isolated from Murine Splenocytes
The potency of test compounds for inhibition of interleukin-2 (IL-2) stimulated STATS phosphorylation was measured in the CD4+ T cells isolated from murine splenocytes using AlphaLisa. Because IL-2 signals through JAK3, this assay provides a measure of JAK3 cellular potency in mouse.
as §5
CD4+ T cells were isolated from murine splenocytes via negative selection on a magnetic column (Miltnyi Biotec) and re-suspended in assay media (phenol red-free DMEM (Life Technologies) supplemented with 10% FBS (ATCC)). Cells were seeded at 50,000 cells/well in assay media (2 μL/well). Compounds were serially diluted in DMSO and diluted to 2× final concentration in assay media. Compound was added (4 μl/well) and the cells incubated at 37° C., 5% CO2 for 1 hour, followed by the addition of IL-2 (R&D Systems; final concentration 7 ng/ml) in pre-warmed assay media (2 μL) for 30 minutes. After cytokine stimulation, cells were lysed with 2 μl of 5× AlphaLisa Lysis Buffer (PerkinElmer). The lysate was shaken at 900 rpm for 10 minutes at room temperature (RT). Phosphorylated STATS was measured via the pSTAT5 AlphaLisa kit (PerkinElmer). Freshly prepared acceptor bead mixture was dispensed onto lysate (5 ul) under green filtered <100 lux light. Plates were shaken at 900 rpm for 2 mins, briefly spun down, and incubated for 2 hrs at RT in the dark. Donor beads were dispensed (5 μl) under green filtered <100 lux light. Plates were shaken at 900 rpm for 2 mins, briefly spun down, and incubated overnight at RT in the dark. Luminescence was measured with excitation at 689 nm and emission at 570 nm using an EnVision plate reader (PerkinElmer) under green filtered <100 lux light.
as §6, with “pSTATS” for “pSTAT5”, “primary CD4+” for “a human”, “cells isolated from murine splenocytes.” for “cell line.”, “vs” for “versus”

Caco-2 cell monolayers = test: Caco-2 permeation assay; format: in vitro ADME, human; conditions: 5 μM, A to B, + Verapamil 25 μM, 120 minutes
Source text: Assay 5: Caco-2 Permeation Assay

Chain of JAK1 (P23458 whole entry): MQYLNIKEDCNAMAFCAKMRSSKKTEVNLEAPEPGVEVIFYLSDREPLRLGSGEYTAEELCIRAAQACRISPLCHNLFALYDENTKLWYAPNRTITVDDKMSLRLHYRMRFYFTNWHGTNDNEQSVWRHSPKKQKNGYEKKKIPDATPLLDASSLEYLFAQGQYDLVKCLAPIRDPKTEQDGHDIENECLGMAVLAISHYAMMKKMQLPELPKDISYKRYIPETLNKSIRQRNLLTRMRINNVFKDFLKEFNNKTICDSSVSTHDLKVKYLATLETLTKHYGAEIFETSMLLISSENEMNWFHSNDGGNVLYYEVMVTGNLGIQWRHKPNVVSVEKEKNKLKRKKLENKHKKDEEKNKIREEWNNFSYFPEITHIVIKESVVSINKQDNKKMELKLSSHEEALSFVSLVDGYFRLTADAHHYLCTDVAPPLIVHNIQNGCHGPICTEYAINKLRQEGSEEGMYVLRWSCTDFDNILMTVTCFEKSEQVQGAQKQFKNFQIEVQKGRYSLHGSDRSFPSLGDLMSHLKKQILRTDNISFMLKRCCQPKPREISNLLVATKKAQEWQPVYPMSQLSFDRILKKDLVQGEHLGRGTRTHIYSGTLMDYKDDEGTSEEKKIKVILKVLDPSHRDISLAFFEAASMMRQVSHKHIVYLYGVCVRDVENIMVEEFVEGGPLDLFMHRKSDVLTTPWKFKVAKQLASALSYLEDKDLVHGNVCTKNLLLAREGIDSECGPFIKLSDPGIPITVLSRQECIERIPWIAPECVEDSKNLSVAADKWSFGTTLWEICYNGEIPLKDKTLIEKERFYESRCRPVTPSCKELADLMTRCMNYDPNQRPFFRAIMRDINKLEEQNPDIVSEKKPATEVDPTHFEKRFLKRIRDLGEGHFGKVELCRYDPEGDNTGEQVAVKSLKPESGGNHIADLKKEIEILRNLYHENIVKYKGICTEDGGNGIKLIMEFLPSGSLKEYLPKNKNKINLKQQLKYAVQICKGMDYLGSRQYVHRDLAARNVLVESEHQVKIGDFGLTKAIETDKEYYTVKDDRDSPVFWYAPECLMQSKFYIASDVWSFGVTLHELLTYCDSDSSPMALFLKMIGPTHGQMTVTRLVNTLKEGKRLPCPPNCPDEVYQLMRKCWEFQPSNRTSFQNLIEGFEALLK

| SMILES | JAK 1 (pKi) (JAK1) | JAK 2 (pKi) (JAK2) | JAK 3 (pKi) (JAK3) | JAK3 (pKi)-JAK1 (pKi) (JAK3) | Tyk 2 (pKi) (Tyk2) | IC50 [1] [nM] | IC50 [2] [nM] | Caco Kp 10^−6 cm/sec (Caco-2 cell monolayers) | Ki (JAK3) [nM] | Ki (JAK2; read-out: JAK 2 (pKi) (converted)) [nM] |
| --- | --- | --- | --- | --- | --- | --- | --- | --- | --- | --- |
| C=CC(=O)N1CC(COc2cc(-c3ccc(O)c(F)c3F)cn3cncc23)C1 [Example 8, 1-(3-(((6-(2,3-difluoro-4-hydroxyphenyl)imidazo[1,5-a]pyridin-8-yl)oxy)methyl)azetidin-1-yl)prop-2-en-1-one] | E (E represents a pKi value of 7 or below (Ki of 100 nM or above)) | E (E represents a pKi value of 7 or below (Ki of 100 nM or above)) | A (A represents a pKi value≥10 (Ki≤0.1 nM)) | A (A represents a value of 3 or above) | E (E represents a pKi value of 7 or below (Ki of 100 nM or above)) | 31.6 to 200 | < 1000 | B (B represents a value between 5×10^−6 and 10×10^−6 cm/sec) |  |  |
| C=CC(=O)N1CC(COc2cc(-c3ccc(O)c(C)c3)cn3cncc23)C1 [Example 34] | E (E represents a pKi value of 7 or below (Ki of 100 nM or above)) | E (E represents a pKi value of 7 or below (Ki of 100 nM or above)) |  | A (A represents a value of 3 or above) | E (E represents a pKi value of 7 or below (Ki of 100 nM or above)) | 31.6 to 200 | < 1000 | B (B represents a value between 5×10^−6 and 10×10^−6 cm/sec) | 0.1 to 1 |  |
| C=CC(=O)N1CC(COc2cc(-c3c(F)cc(O)cc3F)cn3cncc23)C1 [Example 7, 1-(3-(((6-(2,6-difluoro-4-hydroxyphenyl)imidazo[1,5-a]pyridin-8-yl)oxy)methyl)azetidin-1-yl)prop-2-en-1-one] | E (E represents a pKi value of 7 or below (Ki of 100 nM or above)) | E (E represents a pKi value of 7 or below (Ki of 100 nM or above)) |  | A (A represents a value of 3 or above) | E (E represents a pKi value of 7 or below (Ki of 100 nM or above)) | 31.6 to 200 | < 1000 | B (B represents a value between 5×10^−6 and 10×10^−6 cm/sec) | 0.1 to 1 |  |
| C=CC(=O)N1CC(COc2cc(-c3ccc(O)c(F)c3)cn3cncc23)C1 [Example 20] | E (E represents a pKi value of 7 or below (Ki of 100 nM or above)) | E (E represents a pKi value of 7 or below (Ki of 100 nM or above)) |  | A (A represents a value of 3 or above) | E (E represents a pKi value of 7 or below (Ki of 100 nM or above)) | 31.6 to 200 | < 1000 | A (A represents a value below 5×10^−6 cm/sec) | 0.1 to 1 |  |
| C=CC(=O)N1CC(C(C)(C)Oc2cc(-c3ccc(O)cc3)cn3cncc23)C1 [Example 28] | E (E represents a pKi value of 7 or below (Ki of 100 nM or above)) | E (E represents a pKi value of 7 or below (Ki of 100 nM or above)) | A (A represents a pKi value≥10 (Ki≤0.1 nM)) | A (A represents a value of 3 or above) | E (E represents a pKi value of 7 or below (Ki of 100 nM or above)) | 31.6 to 200 | < 1000 | A (A represents a value below 5×10^−6 cm/sec) |  |  |
| C=CC(=O)N1CCC(Oc2cc(-c3ccc(O)cc3)cn3cncc23)C(F)(F)C1 (stereo not drawn) [Example 14, 1-(3,3-difluoro-4-((6-(4-hydroxyphenyl)imidazo[1,5-a]pyridin-8-yl)oxy)piperidin-1-yl)prop-2-en-1-one] | E (E represents a pKi value of 7 or below (Ki of 100 nM or above)) |  | A (A represents a pKi value≥10 (Ki≤0.1 nM)) | A (A represents a value of 3 or above) | E (E represents a pKi value of 7 or below (Ki of 100 nM or above)) | ≤ 31.6 |  | B (B represents a value between 5×10^−6 and 10×10^−6 cm/sec) |  | 10 to 100 |
| C=CC(=O)N1CC(COc2nc(-c3ccc(O)cc3)cn3cncc23)C1 [Example 6, 1-(3-(((6-(4-hydroxyphenyl)imidazo[1,5-a]pyrazin-8-yl)oxy)methyl)azetidin-1-yl)prop-2-en-1-one] | E (E represents a pKi value of 7 or below (Ki of 100 nM or above)) | E (E represents a pKi value of 7 or below (Ki of 100 nM or above)) |  | A (A represents a value of 3 or above) | E (E represents a pKi value of 7 or below (Ki of 100 nM or above)) | 31.6 to 200 |  | B (B represents a value between 5×10^−6 and 10×10^−6 cm/sec) | 0.1 to 1 |  |
